{"source": "patent US7229757B2", "about": "“Compounds displayed on icosahedral phage and methods of using same” (Xenoport, Inc., priority 2001, dated 2007)", "target": "T1, human folate receptor (Homo sapiens, UniProt P15328)", "T1 construct": "KB cells, which express high levels of the human folate receptor; endogenous in cells; host or cells: KB cells", "T1 sequence (P15328 25-234)": "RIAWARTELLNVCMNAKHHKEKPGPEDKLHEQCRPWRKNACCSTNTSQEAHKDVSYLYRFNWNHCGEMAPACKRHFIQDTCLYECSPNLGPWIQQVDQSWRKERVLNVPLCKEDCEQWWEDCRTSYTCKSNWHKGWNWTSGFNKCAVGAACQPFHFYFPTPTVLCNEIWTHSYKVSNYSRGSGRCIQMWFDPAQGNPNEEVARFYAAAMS", "assay": "screening of the 36-member folate analog library on T7 phage for uptake into KB cells", "type": "cell-based", "conditions": "compound displayed on T7 phage", "description": "KB cells were grown adherently in folate-free RPMI with 5% fetal bovine serum in a T75 flask. Prior to screening the compound library the media was removed and replaced with folate-free RPMI containing 0.1% BSA. An aliquot of the folate-analog phage library (˜10^9 pfu) was added to the flask containing 10^7 KB cells and incubated for 2 h at 37° C. Following the incubation period, the cells were detached from the flask by adding PBS containing 5 mM EDTA and incubating for 5 minutes at 37° C. The cell suspension was transferred to a tube and cells were pelleted by centrifugation. The cells were washed 3× with PBS followed by a single wash with “stripping” buffer (50 mM glycine, pH 2.8, 500 mM NaCl, 2M urea, 2% polyvinylpyrolidone) to remove phage particles that were both specifically and non-specifically bound to the surface of the cells. The cell suspension was neutralized by the addition of one half volume of 1 M Tris and centrifuged to pellet the cells. Cells were then lysed with PBS containing 1% SDS to recover phage that were endocytosed. To determine the number of recovered phage particles the lysate was titered by preparing a series of dilutions, infecting BL21 cells and plating on LB agar plates. The plates were incubated for 2-3 h at 37° C. until plaques were clearly visible. […]"}
{"molecule": "NNC(=O)COCCOCCNC(=O)CCC(NC(=O)c1ccc(NCc2cnc3nc(N)nc(O)c3n2)cc1)C(=O)O", "note": "(centres unmarked) [folate-hydrazide, Folate-hydrazide]", "values": [{"measurement": "share of sequenced random clones from the lysate carrying the clone's DNA tag", "setting": "21 sequences", "result": 38, "unit": "%"}, {"measurement": "enrichment of phage clone in the population recovered from the cell lysate (hybridization to library archive array)", "setting": "2 h at 37° C.", "result": "the only one enriched"}]}
